Results reported in patent US9605064B2, “Methods and compositions for treatment of skin disorders” (AbbVie Biotechnology Ltd, priority 2006, dated 2017).
Marks after values point to notes of the source that are not given here.

Tests used:
[1] = test system: patients with moderate to severe psoriasis; assay: PASI 75 response, pooled Phase II (M02-528), CHAMPION and REVEAL by prior systemic therapy; type: in vivo, human; settings: for PASI 75 Response: Overall: pooled studies, ITT, missing = nonresponder
Procedure: For the Phase III studies, study investigators collected patient histories of use of systemic psoriasis treatments over lifetime and response to systemic treatments administered within 12 months of study entry (patient recall of response to treatments administered more than 12 months before enrollment was not collected). For the Phase II study, patient histories of use of systemic treatments for psoriasis administered within 12 months of study entry and response to treatment within 12 months were collected. PASI response rates were assessed through Week 12 for the Phase II study and through Week 16 for the Phase III studies. Intention-to-treat analyses were conducted, with patients with missing PASI responses considered non-responders.

C-reactive protein (CRP) = assay: C-reactive protein concentrations, post-hoc analysis of REVEAL; type: in vivo, human; settings: for mean change from baseline in CRP: 16 wks
Procedure: Changes in CRP concentrations were also evaluated in subgroups with or without self-reported psoriatic arthritis (PsA) and with or without obesity (by body mass index [BMI]).

[2] = test system: patients with moderate to severe psoriasis; assay: Adverse events, open-label extension of REVEAL
Procedure: Laboratory parameters and adverse events were also recorded.

[3] = test system: patients with moderate to severe plaque psoriasis; assay: PASI response and relapse, 12-week open-label weekly therapy then randomized eow or withdrawal; type: in vivo, human
[4] = test system: patients with moderate to severe chronic plaque psoriasis; assay: PASI response, open-label extension of CHAMPION (methotrexate to adalimumab transition); type: in vivo, human
[5] = Week 4, open-label 40 mg weekly, missing = non-responder
[6] = Week 8, open-label 40 mg weekly, missing = non-responder
[7] = Week 12, open-label 40 mg weekly, missing = non-responder
[8] = Week 24, randomized at Week 12 to 40 mg eow, missing = non-responder
[9] = open-label 40 mg weekly, Week 12
[10] = methotrexate-treated patients after 12 weeks of adalimumab therapy
[11] = methotrexate-treated patients after 24 weeks of adalimumab therapy

Adalimumab: a human anti-TNF mAb, described in U.S. Pat. No. 6,090,382 as D2E7 (HUMIRA, Abbott Laboratories)
PASI 75 Response: Overall ([1]; Week 4): 19.4%
PASI 75 Response: Overall ([1]; Week 12): 68.1%
PASI 75 Response: Lack of Response: MTX ([1]; Week 16, patients with prior lack of response to MTX (N = 32)): 65.6% * (N = 32)
PASI 75 Response: Lack of Response: Cyclosporine ([1]; Week 16, patients with prior lack of response to cyclosporine (N = 7)): 71.4% (N = 7)
PASI 75 Response: Lack of Response: Oral PUVA ([1]; Week 16, patients with prior lack of response to oral PUVA (N = 6)): 83.3% (N = 6)
PASI 75 response rate ([1]; overall (n=921), Week 16): 72.1%
PASI 75 response rate ([1]; overall (n=966), Week 4): 19.4%
PASI 75 response rate ([1]; patients who had failed to respond to systemic therapy (n=152), Week 16): 70.4%
PASI 75 response rate ([1]; patients who had failed to respond to systemic therapy (n=160), Week 4): 15.6%
PASI 75 response rate ([1]; patients who had received systemic therapies (n=491), Week 16): 72.7%
PASI 75 response rate ([1]; patients who had received systemic therapies (n=511), Week 4): 21.7%
mean change from baseline in CRP (C-reactive protein (CRP); Ps group (without self-reported PsA)): −1.3
patients with elevated CRP at baseline who had a normal CRP (C-reactive protein (CRP); Ps group, Wk 16): 64.6%
mean change from baseline in CRP (C-reactive protein (CRP); PsA group): −6.3
patients with elevated CRP at baseline who had a normal CRP (C-reactive protein (CRP); PsA group, Week 16): 71.9%
patients changed from elevated CRP at baseline to a normal CRP (C-reactive protein (CRP); obese patients, Week 16): 64.1%
AEs leading to withdrawal, Patients (%) ([2]; First 24 weeks of OLE): 1%
Any AE, Patients (%) ([2]; First 24 weeks of OLE): 47%
Lymphoma, Patients (%) ([2]; First 24 weeks of OLE): 0%
Malignancy, Patients (%) ([2]; First 24 weeks of OLE): 1%
Non-melanoma skin cancer, Patients (%) ([2]; First 24 weeks of OLE): 0%
Serious AE, Patients (%) ([2]; First 24 weeks of OLE): 3%
Nasopharyngitis, Patients (%) ([2]; First 24 weeks of OLE, AEs occurring ≧5% of patients): 5%
patients with serious adverse events ([2]; between Months 12-18): 2.6%
PASI50 response, Patients (%) [3, 5]: 59%
PASI75 response, Patients (%) [3, 5]: 26%
PASI90 response, Patients (%) [3, 5]: 9%
PASI50 response, Patients (%) [3, 6]: 84%
PASI75 response, Patients (%) [3, 6]: 55%
PASI90 response, Patients (%) [3, 6]: 30%
PASI50 response, Patients (%) [3, 7]: 92%
PASI75 response, Patients (%) [3, 7]: 30%
PASI90 response, Patients (%) [3, 7]: 47%
PASI50, Patients (%) [3, 8]: 78%
PASI75, Patients (%) [3, 8]: 68** %
PASI90, Patients (%) [3, 8]: 47** %
PASI 50 response rate ([3]; open-label 40 mg weekly, Week 2): 28%
PASI 50 response rate [3, 9]: 92%
PASI 75 response [3, 9]: 76.4%
PASI 90 response [3, 9]: 47.3%
patients who achieved ≧PASI 50 responses ([3]; patients exposed to alefacept within the past year, Week 12): 6/6
patients who achieved ≧PASI 50 responses ([3]; patients exposed to efalizumab within the past year, Week 12): 14/15
patients who achieved ≧PASI 50 responses ([3]; patients exposed to etanercept within the past year, Week 12): 12/14
patients who achieved ≧PASI 50 responses ([3]; patients exposed to infliximab within the past year, Week 12): 4/4
PASI 75 response rate [4, 10]: 75%
PASI 90 response rate [4, 10]: 47%
PASI 100 response rate [4, 10]: 18%
PASI 75 response rate [4, 11]: 73%
PASI 90 response rate [4, 11]: 53%
PASI 100 response rate [4, 11]: 32%
